This note sets out measurements from US8334299B2, “β-carboline for the treatment of neurodegenerative diseases” (Ellneuroxx, Ltd., priority 2007, dated 2012).

Structures are written as SMILES.

Assay [1] has as its system glial cell line-derived neurotrophic factor (GDNF). Kind of assay: PCR superarray of RNA from the striata of MPP+ rats: GDNF. The assay is classed as in vivo, rat. The text has this:
(§1) To investigate Parkinson's disease acute in vivo models are used for years although chronic models would be a better model for the disease. Another disadvantage of the acute models is that ca. 40% of the animals die from the application of the neurotoxin. Therefore, we have chosen a chronic model in which comparably very low doses of neurotoxin 1-methyl-4-phenylpyridinium (MPP^+) were infused for 28 days into the left lateral ventricle of the rat brain. The substance was continuously applied through osmotic minipumps. Thereby, casualties were completely avoided. After four weeks, either solvent or equimolar amounts of the sample substance, namely neuroprotective betacarboline, resp. 9-alkyl-betacarboline was infused for two weeks via the same catheter. In a preliminary study for dose-finding the MPP^+ dose which leads to a reduction by 40% of the dopamine concentration in the striatum was determined. The dopamine concentration in the striatum is a characteristic marker for Parkinson's disease in which a degeneration of dopaminergic neurons occurs.
An explanation for the effect of the betacarboline was found in the tests of the RNA from the striata of these rats through the PCR superarray method. Accordingly, the betacarboline activates the generation of neurotrophins, thus proteins produced naturally in the body, which are responsible for the growth and differentiation of neurons. […]

Assay [2] concerns dopamine concentration in the striatum. Kind of assay: Chronic MPP+ infusion model of Parkinson's disease, dopamine concentration in the striatum. The assay is classed as in vivo, rat. The following applies: rat.
Text: In the diagram the dopamine (DA) levels of the left and right striatum of the single rats are indicated.
as §1
The compounds A to L were tested as described in example 8. The test results of the compounds A to L are indicated in the following table in comparison to 9-methyl-β-carboline.

The subject of assay [3] is midbrain cells in culture. The assay can be described thus: Dead (necrotic) cells by propidium iodide staining of cell nuclei. The assay is classed as cell-based, mice. The note with it: 48 hours, 50 μM; control about 20%. On the procedure:
FIG. 4b Percentage of dead (necrotic) cells after incubation with 50 μM 9-methyl-β-carboline for 48 hours 10 DIV-12 DIV.
Dying cells release the enzyme lactate dehydrogenase (LDH) into the medium. Since cells always die in culture always a small LDH concentration can be detected in the medium as an indirect measure for the vitality of the culture. Compared to control conditions the LDH concentration decreased after incubation with 9-methyl-β-carboline in a dose-dependent manner with a concentration up to 50 μM (FIG. 4a). The number of dead cells can be quantified by staining the cell nuclei with propidium iodide.

For assay [4], the system named is dopaminergic neurons. The assay can be described thus: Primary midbrain culture, tyrosin hydroxylase staining and counting of dopaminergic neurons. The class given is cell-based, mice. The procedure: The experiments were carried out with the human neuroblastoma cell line (SH-SY5Y-cells) and with a cell culture of primary nerve cells from the mice embryo midbrain. […] Moreover, the mentioned compounds induce in the primary culture from the mice embryo midbrain the generation of new, differentiated and functional dopaminergic neurons.
To this aim midbrain cultures were prepared and kept for 10-12 days (DIV=Days in vitro) in an appropriate medium to accustom to in vitro conditions. Then 9-methyl-β-carboline was added in increasing concentrations and it was waited for 48 hours. Dopaminergic neurons were identified by staining with tyrosin hydroxylase. This enzyme occurs only in dopaminergic midbrain neurons. The number of dopaminergic neurons can be counted reliably with this method. In addition, hints can be obtained whether the dopaminergic neurons are mature or if they are precursor cells. The mature cells have characteristic extensions which also contain tyrosin hydroxylase.

The test system of another assay is caspase-3. Kind of assay: Activity of the apoptosis enzyme caspase-3 in midbrain culture. The class given is cell-based, mice. The following applies: 50 μM. On the procedure: FIG. 4d Activity of the apoptosis enzyme caspase-3 during and after incubation with 50 μM 9-methyl-β-carboline for 48 hours 10 DIV-12 DIV.
(§2) In 48 hours about 20% of the cells in culture died. In cultures with a 9-Alkyl-β-carboline only about 10% of the cells died under the same conditions (FIG. 4b). Thus, the findings are in line with the LDH findings. ATP provides the cell with energy. […] The enzyme caspase-3 is an indicator for apoptosis. After 24 hours, the enzyme activity was reduced which hints at a reduction of apoptotic processes, after 48 hours, however, it was increased (FIG. 4d). The last finding hints at a switch of culture cells from reduced necrosis to apoptosis, thus a more precise regulation of cell death.

Assay [5] deals with Sonic Hedgehog, Wnt 1, Wnt 5a, engrailed 1, Nurr 1, Pitx 3, Aldh1a1, DAT, tyrosin hydroxylase. The assay can be described thus: Real-time-RT-PCR of neurotrophic transcription factors and dopamine markers in midbrain cultures. The note with it: 50 μM, 48 hours and 48 hours after removal. The class given is cell-based, mice. On the procedure: FIG. 7 Evidence of gene expression of neurotrophic transcription factors and dopamine markers with real-time-RT-PCR after incubation with 50 μM 9-methyl-β-carboline for 48 hours 10 DIV-12 DIV.
For this purpose, real-time-RT-PCR experiments were carried out. In this quantitative method the transcription of selected genes is measured. We selected genes which are enhanced under proliferation and differentiation conditions and such that are of importance for the formation, stability and degradation of dopaminergic neurons. The analyses were conducted in midbrain cultures after exposition to 50 μM 9-methyl-β-carboline for 48 hours and 48 hours after removal of 9-methyl-β-carboline. Control cultures were kept simultaneously under the same conditions. […] Moreover, factors were increased which are activated during the formation of dopaminergic precursor cells (progenitor cells) (Aldh1a1), the dopamine transporter (DAT) and tyrosin hydroxylase.

Assay [6] concerns dopaminergic neurons. The assay can be described thus: 3H-dopamine uptake (dopamine transport capacity) in midbrain culture. The following applies: 50 μM, 48 hours, 10 DIV-12 DIV. The class given is cell-based, mice. The procedure: FIG. 2b Dopamine transport capacity of dopaminergic neurons after 48 hours. ^3H-dopamine uptake after incubation with 50 μM 9-Me-BC for 48 hours from 10 DIV-12 DIV.
To obtain further hints that the number of dopaminergic neurons really has increased, the dopamine concentration was measured. […] Another characteristic and specificity of dopaminergic neurons is the transport of dopamine into the neurons. Dopamine cannot permeate the outer membrane of neurons because of its hydrophilic character. It must be actively and energy-dependently transported through the DAT mechanism.

Assay [7] concerns midbrain cells in culture. Kind of assay: ATP content of midbrain culture. The assay is classed as cell-based, mice. The following applies: 50 μM, 48 hours. The procedure:
FIG. 4c ATP concentration (ATP content) after incubation with 50 μM 9-methyl-β-carboline (9-Me-BV) for 48 hours 10 DIV-12 DIV.
as §2

On to `Cn1c2ccccc2c2ccncc21` [9-methyl-β-carboline], for which the “concentration of GDNF” value in assay [1] (left striatum) is on record as “did not increase”. Besides, in assay [1] (right striatum), the “increase of GDNF by factor” value is recorded as 12. Moreover, the “dopamine concentration in the left striatum” value in assay [2] (4 weeks MPP+ then 2 weeks compound (equimolar, 0.105 mg/kg/day) into left ventricle) is given as “normalized”. The “effect in an established model of Parkinson's disease” value in assay [2] (chronic MPP+ model) was “neuroprotective effect”. The “cells in culture that died” value in assay [3] is given as “about 10%”. Moreover, the “increase in dopaminergic neurons after inactivation of the dopamine transporter DAT” value in the assay with dopaminergic neurons [4] (50 μM 9-Me-BC with DAT inhibitor GBR12909, 48 hours) is on record as “does not occur”. The “cellular extensions and branching of dopaminergic neurons” value with dopaminergic neurons [4] (50 μM, 48 hours, vs control without compound) was “significantly more cellular extensions”. The “number of dopaminergic neurons” value in the assay on dopaminergic neurons [4] (10-200 μM, 48 hours, 10 DIV-12 DIV, increase up to ca. 100 μM) is recorded as “increased dose-dependently”. Besides, the caspase-3 enzyme activity result in the assay on caspase-3 (after 24 hours) is “reduced”. Also, the caspase-3 enzyme activity result in the assay on caspase-3 (after 48 hours) is given as “increased”. In assay [5], the “transcription of Aldh1a1, dopamine transporter (DAT) and tyrosin hydroxylase” value is on record as “increased”; the “transcription of Sonic Hedgehog, Wnt 1, Wnt 5a, engrailed 1, Nurr 1 and Pitx 3” value was “activated”. In addition, the “neuronal transport capacity of dopamine (3H-dopamine uptake)” value in the assay with dopaminergic neurons [6] is on record as “increases”. For the same compound, the “concentration of ATP” value in assay [7] is on record as “increased”.
